Data taken from PMC8300761, “In Vitro Antifungal Activity and Toxicity of Dihydrocarvone-Hybrid Derivatives against Monilinia fructicola” (Antibiotics, 2021).
Converted amounts (≈) assume the structure as drawn.

Legend:
[1] = tested on: Monilinia fructicola strain 1 (S1); experiment: radial mycelial growth test, M. fructicola strain 1 (S1); format: cell-based; settings: PDA, 120 h at 24 °C in the dark; for EC50: Monilinia fructicola, 120 h, n = 6, read-out: EC50 ± SD, mycelial growth inhibition; for EC50 ± SD, mycelial growth inhibition: n = 6
Excerpt: (§1) Both strains (S1 and S2) of M. fructicola were kindly provided by the phytopathology laboratory of the Servicio Agrícola y Ganadero de Chile (SAG), Santiago, Chile. The isolate S1 was recovered from infected peach from commercial orchards in the O’Higgins region, Chile, and the isolate S2 was recovered from infected nectarines from commercial orchards in the province of Maipo, Metropolitan Region, Chile and identified to species level with a PCR assay developed by the molecular biology laboratory belonging to SAG; these were maintained on potato dextrose agar (PDA) and incubated for 120 h at 24 °C.
(§2) The antifungal activity of all dihidrocarvone-hybrid derivatives (2–9) against both strains of M. fructicola was determined by the radial test previously reported. The test compounds were dissolved in ethanol (5% v/v) and added to the potato dextrose agar medium (PDA) medium in the petri dishes to obtain a final concentration of 10, 25, 50, 150, and 250 µg/mL. The mycelial growth diameters were measured after 120 h of incubation at 24 °C in the dark, and the inhibition percentages were calculated with respect to the negative ethanol control. The commercial fungicides Mystic® 520 SC (Pyrimethanil 400 g/L, Trifloxystrobin 120 g/L) (Lot: PAIS004727; Bayer, Santiago, Chile) and BC-1000® (grapefruit seed and pulp extract (Citrus x paridisi), 50% w/v (500 g/L)) were used as positive controls and were measured under the same conditions as the compounds.
(§3) The results were expressed as the effective concentration (EC50) that reduced mycelial growth by 50%. This value was determined by regressing the values of the percentage inhibition of radial growth against the compound concentration values. The fit analysis was performed using the Origin Pro® V. 8.0 software (OriginLab Corporation, Northampton, Massachusetts, EE.UU). These experiments were performed in triplicate and each assay was performed twice (n = 6). Significant differences were determined using a one-way analysis of variance, followed by a pairwise comparison of means (LSD test; p < 0.05) (Microsoft Office Excel® 2016).

[2] = tested on: Monilinia fructicola strain 2 (S2); experiment: radial mycelial growth test, M. fructicola strain 2 (S2); format: cell-based; settings: PDA, 120 h at 24 °C in the dark, n = 6, read-out: EC50 ± SD, mycelial growth inhibition
Excerpt: as §1, §2, §3

[3] = tested on: Artemia salina L. larvae; experiment: brine shrimp lethality test (BSLT); format: in vivo; settings: for LD50 (BSLT): Artemia salina larvae, 24 h, probit analysis
Procedure: The assay was carried out according to the principle and protocol previously described. Briefly, Artemia salina L. eggs were inserted into a box containing seawater; the box was placed under a UV lamp; after 48 h, the eggs hatched into larvae and were ready for the test. All of the compounds were dissolved in methanol at final concentrations of 1000 to 10 µg/mL. After 24 h, the live and dead shrimp were counted. The experiment was conducted in triplicate. The median lethal concentrations (LD50) with 95% confidence intervals were determined using the Probit analysis method. For LC50 values, probit analysis was used with Minitab V. 15 software (Minitab® Statistical Software, State College, PA, USA).

[4] = tested on: both strains of M. fructicola; experiment: radial mycelial growth test, inhibition percentages over both strains; format: cell-based; settings: Monilinia fructicola, range over strains 1 and 2, read-out: inhibition percentage of mycelial growth
Excerpt: as §1
as §2, with “The test compounds were dissolved in ethanol (5% v/v) and added to the potato dextrose agar medium (PDA) medium in the petri dishes to obtain a final concentration of 10, 25, 50, 150, and 250 µg/mL.” left out, “compounds. […]” for “compounds.”

C=C(C)[C@@H]1CCC(C)C(=O)C1=Cc1ccc2c(c1)OCO2 (stereo partly drawn) [Compound 7, (3S)-2-(1,3-benzodioxol-5-ylmethylene)-3-isopropenyl-6-methylcyclohexanone]
EC50 [1]: 146 to 148 µg/mL (≈ 513 to 521 µM) | EC50 ± SD, mycelial growth inhibition [1]: 148.1 ± 1.4 µg/mL (≈ 521 µM) | EC50 [2]: 18.1 µg/mL (≈ 63.7 µM) | LD50 (BSLT) [3]: 910 µg/mL

C=C(C)[C@@H]1CCC(C)C(=O)C1=Cc1cccc(OC)c1 (stereo partly drawn) [Compound 4, (3S)-3-isopropenyl-2-(3-methoxybenzylidene)-6-methylcyclohexanone]
EC50 [1]: 273.2 ± 0.9 µg/mL (≈ 1010 µM) | EC50 [2]: 39.6 ± 1.1 µg/mL (≈ 146 µM) | LD50 (BSLT) [3]: >1000 µg/mL

C=C(C)[C@@H]1CCC(C)C(=O)C1=Cc1ccc(O)cc1 (stereo partly drawn) [Compound 9, (3S)-2-(4-hydroxybenzylidene)-3-isopropenyl-6-methylcyclohexanone]
EC50 [1]: > 250 µg/mL | EC50 [2]: > 250 µg/mL | LD50 (BSLT) [3]: 847 µg/mL | times less toxic than the commercial control of M. fructicola (BSLT) ([3]; compared with the commercial control (Mystic 520 SC)): 80 times

C=C(C)[C@@H]1CCC(C)C(=O)C1=Cc1ccc(OC)cc1 (stereo partly drawn) [Compound 5, (3S)-3-isopropenyl-2-(4-methoxybenzylidene)-6-methylcyclohexanone]
EC50 [1]: > 250 µg/mL | EC50 [2]: 23.1 ± 1.2 µg/mL (≈ 85.4 µM) | LD50 (BSLT) [3]: >1000 µg/mL

C=C(C)[C@@H]1CCC(C)C(=O)C1 (some centres unmarked) [Compound 1, Dihydrocarvone]
EC50 [1]: > 250 µg/mL | EC50 [2]: > 250 µg/mL | LD50 (BSLT) [3]: 550 µg/mL

C=C(C)[C@@H]1CCC(C)C(=O)C1=Cc1ccccc1OC (stereo partly drawn) [Compound 3, (3S)-3-isopropenyl-2-(2-methoxybenzylidene)-6-methylcyclohexanone]
EC50 [1]: > 250 µg/mL | EC50 [2]: 58 ± 0.7 µg/mL (≈ 215 µM) | LD50 (BSLT) [3]: >1000 µg/mL

C=C(C)[C@@H]1CCC(C)C(=O)C1=Cc1ccc(OC)c(OC)c1 (stereo partly drawn) [Compound 6, (3S)-2-(3,4-dimethoxybenzylidene)-3-isopropenyl-6-methylcyclohexanone]
EC50 [1]: > 250 µg/mL | EC50 [2]: 47.7 ± 0.8 µg/mL (≈ 159 µM) | LD50 (BSLT) [3]: 954 µg/mL

C=C(C)[C@@H]1CCC(C)C(=O)C1=Cc1cccc(O)c1 (stereo partly drawn) [Compound 8, (3S)-2-(3-hydroxybenzylidene)-3-isopropenyl-6-methylcyclohexanone]
EC50 [1]: 146 to 148 µg/mL (≈ 569 to 578 µM) | EC50 ± SD, mycelial growth inhibition [1]: 145.9 ± 1.7 µg/mL (≈ 569 µM) | EC50 [2]: 15.7 ± 1.3 µg/mL (≈ 61.2 µM) | LD50 (BSLT) [3]: 890 µg/mL | inhibition at 150 µg/mL ([4]; 150 µg/mL): 47 to 88% | inhibition at 250 µg/mL ([4]; 250 µg/mL): 62 to 97%

C=C(C)[C@@H]1CCC(C)C(=O)C1=Cc1ccccc1 (stereo partly drawn) [Compound 2, (3S)-2-benzylidene-3-isopropenyl-6-methylcyclohexanone]
EC50 [1]: > 250 µg/mL | EC50 [2]: > 250 µg/mL | LD50 (BSLT) [3]: >1000 µg/mL
